Measured values as given in PubChem BioAssay (NCI).
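Assay format: 96-well plates, 48-hour exposure. GI50 is the concentration that inhibits growth by half. TGI is the concentration that stops growth completely.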

How the values were obtained:
Experiment in all cases: NCI anticancer screen, dose series, 48 h
[1] = system: 786-0 renal
[2] = system: BT-549 breast
[3] = system: CAKI-1 renal
[4] = system: HS 578T breast
[5] = system: SK-MEL-2 melanoma
[6] = system: SK-MEL-5 melanoma
[7] = system: SK-OV-3 ovarian
[8] = system: SN12C renal
[9] = system: HCC-2998 colon
[10] = system: SK-MEL-28 melanoma

Row | Structure (SMILES) | TGI [1] | TGI [2] | TGI [3] | TGI [4] | TGI [5] | TGI [6] | TGI [7] | TGI [8] | TGI [9] | TGI [10] | GI50 [4]
1 | COc1c(C)c(C/C=C(\C)CC/C=C(\C)CC/C=C(\C)CCC=C(C)C)c(OC)c2ccccc12 | > 100 µM | > 100 µM | > 100 µM | > 100 µM | > 100 µM | > 100 µM | > 100 µM | > 100 µM | – | – | –
2 | COC(=O)c1ccccc1C1=C([N+](=O)[O-])C(c2ccccc2)C(C#N)=C(N)O1 (centres undefined) | > 100 µM | – | – | > 100 µM | > 100 µM | > 100 µM | > 100 µM | > 100 µM | > 100 µM | > 100 µM | –
3 | CCOC(=O)C(=CN1CCNC1=S)C(=O)OCC | > 100 µM | > 100 µM | > 100 µM | > 100 µM | > 100 µM | > 100 µM | > 100 µM | > 100 µM | > 100 µM | > 100 µM | > 100 µM
4 | COc1cc(CCN(C)C)cc(OC)c1OC | – | > 100 µM | > 100 µM | > 100 µM | > 100 µM | > 100 µM | > 100 µM | > 100 µM | > 100 µM | – | –
5 | Cc1cc2oc(C)c(S(=O)(=O)NC(=O)Nc3ccc(Cl)cc3)c(=O)c2c(=O)o1 | > 100 µM | > 100 µM | > 100 µM | > 100 µM | > 100 µM | > 100 µM | > 100 µM | > 100 µM | > 100 µM | > 100 µM | –
6 | CC12CCC(C(=Nc3cc(C(F)(F)F)cc(C(F)(F)F)c3)C1=O)C2(C)C (centres undefined) | > 100 µM | > 100 µM | > 100 µM | – | 51.2 µM | > 100 µM | > 100 µM | – | 73.3 µM | > 100 µM | –
7 | CCOC(=O)c1[nH]c2cccc3c2c1CC[C@H](NC(=O)C(F)(F)F)C3=O | > 100 µM | > 100 µM | 28 µM | 61.8 µM | > 100 µM | > 100 µM | – | > 100 µM | > 100 µM | 0.0458 µM | –
8 | CN[C@@H](C)[C@@H](O)c1ccccc1 | > 100 µM | – | > 100 µM | > 100 µM | > 100 µM | > 100 µM | – | > 100 µM | > 100 µM | > 100 µM | –
9 | CCCc1nnc2sc(COc3cc(Cl)c(OCc4nn5c(CCC)nnc5s4)cc3Cl)nn12 | > 100 µM | > 100 µM | > 100 µM | > 100 µM | > 100 µM | 32.1 µM | 82.5 µM | > 100 µM | > 100 µM | > 100 µM | –
10 | CC(C)(C)OC(=O)N1[C@@H]2Cc3ccc(N)cc3[C@@]1(C)c1ccccc12 | 36.2 µM | 43.4 µM | > 100 µM | > 100 µM | 43.4 µM | 12.4 µM | > 100 µM | 30.7 µM | 47.2 µM | – | –
11 | COc1cccc(-c2nccc3c(OCc4ccccc4)c(OC)c(OC)cc23)c1 | – | – | – | – | > 100 µM | > 100 µM | > 100 µM | > 100 µM | > 100 µM | – | –
